Experimental findings from patent publication US9586931B2 (Merck Sharp & Dohme Corp., priority 2012, dated 2017) are described below.

One may read the IC50 as the concentration that gives 50% inhibition.

“And” between values parts separate entries of the source, which are not always exact repeats. Equal values may be shown once. Where a name gives a salt, the structure may show the parent alone.

This test addresses T1, recombinant human GST-Syk (Homo sapiens, UniProt P43405).
T1 construct: purchased Carna Biosciences 08-176
Description: Homogeneous Time-Resolved Fluorescence (HTRF) assay for the recombinant human Syk enzyme. The class given is biochemical. To be noted: recombinant human GST-Syk 5 pM, ATP 25 μM, 10-dose titration 10 μM to 0.508 nM; read-out: rhSYK Activity IC50. The essentials:
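Detection used time-resolved fluorescence 30 min after adding a quench mix (40 mM EDTA, 15 mM Tris pH 7.5, 0.01% Tween 20) containing 2 nM Europium anti-pTyr antibody and 70 nM streptavidin-APC. This followed 45 min of room-temperature peptide phosphorylation by recombinant GST-tagged human Syk.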
For orientation: TR-FRET usually uses a lanthanide donor and a delayed reading to cut background.
Regarding `Cc1cc(Nc2cc(C(F)F)ccn2)nc(-c2cn(CC(C)(O)C(C)(C)O)nn2)c1` (centres unmarked) [Example 21.9, 1-[4-(6-{[4-(difluoromethyl)pyridin-2-yl]amino}-4-methylpyridin-2-yl)-1H-1,2,3-triazol-1-yl]-2,3-dimethylbutane-2,3-diol], the IC50 is 13.5 nM.

For `Cc1cc(Nc2nccc(C(F)F)n2)cc(-c2cn(C3CCCC(C)(O)C3O)nn2)c1` (single isomer, unassigned) [Example 29.3, 3-(4-(3-((4-(Difluoromethyl)pyrimidin-2-yl)amino)-5-methylphenyl)-1H-1,2,3-triazol-1-yl)-1-methylcyclohexane-1,2-diol], the IC50 stood at 10.5 nM.

Regarding `Cc1cc(Nc2nccc(C(F)(F)F)n2)cc(-n2cc([C@]3(O)CC[C@@H](C(=O)OC(C)(C)C)CC3)nn2)c1` [Example 15.6, tert-butyl cis-4-hydroxy-4-[1-(3-methyl-5-{[4-(trifluoromethyl)pyrimidin-2-yl]amino}phenyl)-1H-1,2,3-triazol-4-yl]cyclohexanecarboxylate], the concentration for half-maximal inhibition (IC50) turned out to be 850 nM.

For the compound `Cc1cc(Nc2cc(C(F)(F)F)ccn2)nc(-c2cn(-c3ccc(C(=O)O)cc3)nn2)c1` [Example 7.1, 4-(4-(4-Methyl-6-((4-(trifluoromethyl)pyridin-2-yl)amino)pyridin-2-yl)-1H-1,2,3-triazol-1-yl)benzoic acid], the IC50 turned out to be 11.1 nM.

Take `Cc1cc(Nc2nccc(C)n2)cc(-c2cn(C3CCCCC3(C)O)nn2)c1` (single isomer, unassigned) [Example 7.28, 1-methyl-2-(4-{3-methyl-5-[(4-methylpyrimidin-2-yl)amino]phenyl}-1H-1,2,3-triazol-1-yl)cyclohexanol]: the half-maximal inhibitory concentration (IC50) stood at 77.6 nM.

Regarding `Cc1cc(Nc2nccc(C(F)F)n2)cc(-c2cn(Cc3ccc(=O)[nH]c3)nn2)c1` [Example 33, 5-((4-(3-((4-(Difluoromethyl)pyrimidin-2-yl)amino)-5-methylphenyl)-1H-1,2,3-triazol-1-yl)methyl)pyridin-2(3H)-one], the IC50 is 3.7 nM.

Consider `Cc1cc(Nc2cc(C(F)(F)F)ccn2)nc(-c2cn(C(C)C(=O)NCc3cc(-c4ccco4)on3)nn2)c1` (centres unmarked) [Example 1.37, N-[(5-furan-2-ylisoxazol-3-yl)methyl]-2-[4-(4-methyl-6-{[4-(trifluoromethyl)pyridin-2-yl]amino}pyridin-2-yl)-1H-1,2,3-triazol-1-yl]propanamide], for which the IC50 came to 33.9 nM.

With `Cc1cc(Nc2cc(C(F)(F)F)ccn2)nc(-c2cn([C@@H](C)C(=O)O)nn2)c1` [Example 5.30, (2S)-2-[4-(4-methyl-6-{[4-(trifluoromethyl)pyridin-2-yl]amino}pyridin-2-yl)-1H-1,2,3-triazol-1-yl]propanoic acid], the IC50 turned out to be 39.8 nM.

With `Cc1cc(Nc2nccc(C(F)(F)F)n2)cc(-c2cn(C3CCCCC3O)nn2)c1` (racemic) [Example 5.57, 2-[4-(3-methyl-5-{[4-(trifluoromethyl)pyrimidin-2-yl]amino}phenyl)-1H-1,2,3-triazol-1-yl]cyclohexanol], the IC50 is 17 nM.

On to `COC(=O)CNC(=O)[C@H](C)n1cc(-c2cc(C)cc(Nc3cc(C(F)(F)F)ccn3)n2)nn1` [Example 1.1, Methyl N-{(2S)-2-[4-(4-methyl-6-{[4-(trifluoromethyl)pyridin-2-yl]amino}pyridin-2-yl)-1H-1,2,3-triazol-1-yl]propanoyl}glycinate trifluoroacetate], for which the IC50 was 76.3 nM.

`COC(=O)c1ccc(C(CO)n2cc(-c3cc(C)cc(Nc4cc(C(F)(F)F)ccn4)n3)nn2)cc1` (centres unmarked) [Example 4.16, methyl 4-{2-hydroxy-1-[4-(4-methyl-6-{[4-(trifluoromethyl)pyridin-2-yl]amino}pyridin-2-yl)-1H-1,2,3-triazol-1-yl]ethyl}benzoate]: the IC50 turned out to be 40.3 nM.

For `Cc1cc(Nc2cc(C(F)(F)F)ccn2)nc(-c2cn(C(C)C(O)CC#N)nn2)c1` (centres unmarked) [Example 4.3, 3-hydroxy-4-[4-(4-methyl-6-{[4-(trifluoromethyl)pyridin-2-yl]amino}pyridin-2-yl)-1H-1,2,3-triazol-1-yl]pentanenitrile], the IC50 turned out to be 4.6 nM.

Regarding `Cc1cc(Nc2nccc(C(F)(F)F)n2)cc(-c2nc[nH]n2)c1` [Example 2.14, N-[3-methyl-5-(1H-1,2,4-triazol-3-yl)phenyl]-4-(trifluoromethyl)pyrimidin-2-amine], the IC50 came out at 281 nM.

For the compound `Cc1cc(Nc2cc(C(F)(F)F)ccn2)nc(-c2cn(CC(C)(O)CO)nn2)c1` (centres unmarked) [Example 10.15, 2-methyl-3-[4-(4-methyl-6-{[4-(trifluoromethyl)pyridin-2-yl]amino}pyridin-2-yl)-1H-1,2,3-triazol-1-yl]propane-1,2-diol], the IC50 worked out at 7.2 nM.

On to `Cc1cc(Nc2cc(C(F)(F)F)ccn2)nc(-c2cn(C(C)C(=O)O)nn2)c1` (racemic) [Example 5.43, 2-[4-(4-methyl-6-{[4-(trifluoromethyl)pyridin-2-yl]amino}pyridin-2-yl)-1H-1,2,3-triazol-1-yl]propanoic acid], for which the IC50 was 35.2 nM and 17 nM.

In the case of `Cc1cc(Nc2cc(C(F)(F)F)ccn2)nc(-c2cn(C3CCC(C(N)=O)C(C)(C)C3)nn2)c1` (single isomer, unassigned) [Example 1.5, 2,2-dimethyl-4-[4-(4-methyl-6-{[4-(trifluoromethyl)pyridin-2-yl]amino}pyridin-2-yl)-1H-1,2,3-triazol-1-yl]cyclohexanecarboxamide], the IC50 was found to be 8 nM.

Consider `Cc1cc(Nc2cc(F)ccn2)nc(-c2cn(C(C)c3ccc(C(=O)O)cc3)nn2)c1` (centres unmarked) [Example 2.2, 4-[1-(4-{6-[(4-fluoropyridin-2-yl)amino]-4-methylpyridin-2-yl}-1H-1,2,3-triazol-1-yl)ethyl]benzoic acid], for which the IC50 was 8.88 nM.

As for `Cc1cc(Nc2nccc(C(F)(F)F)n2)cc(-n2cc(C3(O)CCC(C(=O)O)C(C)(C)C3)nn2)c1` (centres unmarked) [Example 15.1, 4-hydroxy-2,2-dimethyl-4-[1-(3-methyl-5-{[4-(trifluoromethyl)pyrimidin-2-yl]amino}phenyl)-1H-1,2,3-triazol-4-yl]cyclohexanecarboxylic acid], the IC50 amounted to 6.5 nM.

In the case of `Cc1cc(Nc2cc(C(F)F)ccn2)nc(-c2cn(CC(C)(O)CC#N)nn2)c1` (single isomer, unassigned) [Example 23.2, 4-(4-(6-((4-(difluoromethyl)pyridin-2-yl)amino)-4-methylpyridin-2-yl)-1H-1,2,3-triazol-1-yl)-3-hydroxy-3-methylbutanenitrile], the IC50 was determined as 9 nM.

Turning to `Cc1ccnc(Nc2cc(C)cc(-c3cn(C[C@H](C)CO)nn3)n2)c1` [Example 5.16, (2S)-2-methyl-3-(4-{4-methyl-6-[(4-methylpyridin-2-yl)amino]pyridin-2-yl}-1H-1,2,3-triazol-1-yl)propan-1-ol], the 50% inhibitory concentration (IC50) came out at 235 nM.

For the compound `Cc1cc(Nc2nccc(C(F)F)n2)cc(-c2cn(C(C)C(C)(O)CO)nn2)c1` (single isomer, unassigned) [Example 30.4, 3-(4-(3-((4-(Difluoromethyl)pyrimidin-2-yl)amino)-5-methylphenyl)-1H-1,2,3-triazol-1-yl)-2-methylbutane-1,2-diol], the IC50 was 11.4 nM.

As for `Cc1cc(Nc2cc(C(F)F)ccn2)nc(-c2cn(C3CCCC(O)C3O)nn2)c1` (centres unmarked) [Example 21.37, 3-(4-(6-((4-(difluoromethyl)pyridin-2-yl)amino)-4-methylpyridin-2-yl)-1H-1,2,3-triazol-1-yl)cyclohexane-1,2-diol], the IC50 came to 1.9 nM.

For the compound `COc1nc(Nc2cc(C)cc(-c3cn(CC(C)(O)C(C)(C)O)nn3)c2)ncc1Cl` (centres unmarked) [Example 21.27, 1-(4-{3-[(5-chloro-4-methoxypyrimidin-2-yl)amino]-5-methylphenyl}-1H-1,2,3-triazol-1-yl)-2,3-dimethylbutane-2,3-diol], the IC50 was 41.5 nM.

With `Cc1cc(Nc2nccc(C(F)(F)F)n2)cc(-c2cn(Cc3ccc(C(=O)O)cc3)nn2)c1` [Example 5.21, 4-{[4-(3-methyl-5-{[4-(trifluoromethyl)pyrimidin-2-yl]amino}phenyl)-1H-1,2,3-triazol-1-yl]methyl}benzoic acid], the IC50 came out at 3.3 nM.

As to `Cc1cc(Nc2nccc(C(F)F)n2)cc(-c2cn(CC(C)(O)CC#N)nn2)c1` (single isomer, unassigned) [Example 27.1, 4-(4-(3-((4-(difluoromethyl)pyrimidin-2-yl)amino)-5-methylphenyl)-1H-1,2,3-triazol-1-yl)-3-hydroxy-3-methylbutanenitrile], the IC50 came to 19.7 nM.

On to `Cc1cc(Nc2cc(C(F)(F)F)ccn2)nc(-c2cn(C3CCNC(=O)CC3)nn2)c1` (racemic) [Example 11.3, 5-[4-(4-methyl-6-{[4-(trifluoromethyl)pyridin-2-yl]amino}pyridin-2-yl)-1H-1,2,3-triazol-1-yl]azepan-2-one], for which the 50% inhibitory concentration (IC50) turned out to be 118 nM.

Consider `Cc1cc(Nc2cc(C(F)(F)F)ccn2)nc(-c2cn(C/C=C/C(=O)O)nn2)c1` [Example 5.45, (2E)-4-[4-(4-methyl-6-{[4-(trifluoromethyl)pyridin-2-yl]amino}pyridin-2-yl)-1H-1,2,3-triazol-1-yl]but-2-enoic acid], for which the IC50 came to 8.3 nM.

Regarding `Cc1cc(Nc2cc(C(F)(F)F)ccn2)nc(-c2cn(C[C@@H](O)C(N)=O)nn2)c1` [Example 1.14, (2R)-2-hydroxy-3-[4-(4-methyl-6-{[4-(trifluoromethyl)pyridin-2-yl]amino}pyridin-2-yl)-1H-1,2,3-triazol-1-yl]propanamide], the IC50 turned out to be 9.1 nM.

For the compound `Cc1cc(Nc2cc(C(F)(F)F)ccn2)nc(-c2cn([C@H](C)C(=O)NCC(N)=O)nn2)c1` [Example 1.21, (2R)-N-(2-amino-2-oxoethyl)-2-[4-(4-methyl-6-{[4-(trifluoromethyl)pyridin-2-yl]amino}pyridin-2-yl)-1H-1,2,3-triazol-1-yl]propanamide], the IC50 was determined as 23.1 nM.
